Results taken from patent US11530244B2, “Cyclic polypeptides for PCSK9 inhibition” (priority 2018, dated 2022).
Starred links: 1 amine or outer side, 2 acyl side, 3 side chain; linkers in the order of their positions; H or OH if unused. Positions of bridges follow the written chain, without caps; N, C: chain ends. Non-standard residues stand in square brackets, D forms with d. Residues, ends and D or L forms follow the SMILES beside them. Phe(4-COOH) = N[C@@H](Cc1ccc(C(=O)O)cc1)C(=O)O; Trp(5-F) = N[C@@H](Cc1c[nH]c2ccc(F)cc12)C(=O)O; X10 = O=C(CCSCc1ccc2ccc(CSCCN[*:1])cc2c1)[*:2]; Phe(4-CH2NH2) = NCc1ccc(C[C@H](N)C(=O)O)cc1; X11 = COc1ccc(C[C@H](N[*:1])C(=O)[*:2])cc1C; X9 = CS[C@H]1C[C@@H](C(=O)[*:2])N([*:1])C1; X16 = O=C([C@H](CCCCCC=[*:3])N[*:1])[*:2]; X17 = O=C(CCSCc1ccc(CSCCN[*:1])cc1)[*:2]; X19 = O=C(CCCCc1ccc(CCCCN[*:1])cc1)[*:2]; Pro(4S-NH2) = N[C@@H]1CN[C@H](C(=O)O)C1; X4 = O=C(CCSCc1cccc(CSCCN[*:1])c1)[*:2]; Hag = O=C([C@H](CCC=[*:3])N[*:1])[*:2]; mXylylene = c1cc(C[*:1])cc(C[*:2])c1; Adipoyl = O=C(CCCCC(=O)[*:2])[*:1]; X7 = O=C(Cc1ccc(CN[*:1])cc1)[*:2]; hPhe = N[C@@H](CCc1ccccc1)C(=O)O; Aad = N[C@@H](CCCC(=O)O)C(=O)O; αMeP = C[C@@]1(C(=O)O)CCCN1; Mpa = O=C(O)CCS

Legend:
[1] = target: human PCSK9 / human LDLR EGFa domain interaction (Homo sapiens (Human), UniProt Q8NBP7); test: TR-FRET assay of inhibition of the PCSK9-LDLR protein-protein interaction; assay type: binding; conditions: TR-FRET, 20 nM human PCSK9, 20 nM human LDLR EGFa domain, 2 hours room temperature; read-out: IC50
Chain of human PCSK9 / human LDLR EGFa domain interaction (Q8NBP7 153-692): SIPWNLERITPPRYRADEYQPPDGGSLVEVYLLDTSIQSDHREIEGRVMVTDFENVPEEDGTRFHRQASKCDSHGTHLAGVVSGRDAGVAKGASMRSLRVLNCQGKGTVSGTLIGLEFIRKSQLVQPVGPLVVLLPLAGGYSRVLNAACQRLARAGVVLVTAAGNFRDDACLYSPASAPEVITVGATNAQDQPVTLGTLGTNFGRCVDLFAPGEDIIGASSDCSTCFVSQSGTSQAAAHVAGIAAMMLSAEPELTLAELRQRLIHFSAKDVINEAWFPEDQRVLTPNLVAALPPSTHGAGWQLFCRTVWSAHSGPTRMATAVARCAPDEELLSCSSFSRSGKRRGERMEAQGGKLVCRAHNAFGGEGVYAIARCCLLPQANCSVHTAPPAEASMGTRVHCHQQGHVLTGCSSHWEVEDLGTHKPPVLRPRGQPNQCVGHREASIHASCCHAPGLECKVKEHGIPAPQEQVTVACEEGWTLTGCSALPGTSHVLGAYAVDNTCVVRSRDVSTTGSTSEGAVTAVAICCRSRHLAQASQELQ
Chain of human PCSK9 / human LDLR EGFa domain interaction (Q8NBP7 31-152 partner): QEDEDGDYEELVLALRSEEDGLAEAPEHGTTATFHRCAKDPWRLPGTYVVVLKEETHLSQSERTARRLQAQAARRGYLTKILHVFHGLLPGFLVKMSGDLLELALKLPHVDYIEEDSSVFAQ
Summary of the method: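 Half-maximal inhibitory concentrations came from 4-parameter fits of dose-response data. Proteins: biotinylated PCSK9, His-tagged LDLR EGFa, 20 nM each; labels 5 nM; 2 h, room temperature; buffer 50 mM HEPES, 150 mM NaCl, 5 mM CaCl2.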

PCSK9 = PCSK9 (Homo sapiens (Human), UniProt Q8NBP7); test: PCSK9 Alexa FRET Standard assay (displacement of AlexaFluor647 tagged cyclic peptide Reagent A); assay type: binding; conditions: PCSK9 Alexa FRET Standard assay, 0.5 nM PCSK9, 20 nM AF cyclic peptide Reagent A; read-out: IC50
Chain of PCSK9 (Q8NBP7 153-692): as the sequence (Q8NBP7 153-692) above
Summary of the method: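 TR-FRET displacement: 0.5 nM biotinylated PCSK9 with 1.25 nM Strep-Eu and 20 nM AlexaFluor-tagged cyclic peptide (final) in 50 mM HEPES pH 7.4, 0.15 M NaCl, 5 mM CaCl2, 0.01% BSA, 0.01% P20, ≥2 h at room temperature. IC50 from sigmoidal fit, converted to Ki via peptide KD; falling Eu counts flagged false positives.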

IC50 [1] [nM] | IC50 (PCSK9) [nM] | SMILES
100 to 1000 | 100 to 1000 | COc1ccc(C[C@@H]2NC(=O)[C@H]([C@@H](C)O)NC(=O)[C@@H]3CCCCC/C=C/CC[C@H](NC(=O)[C@@H](C)NC(=O)[C@H](C)NC(=O)CCSCc4cccc(c4)CSCCNC(=O)[C@]4(C)CCCN4C2=O)C(=O)N[C@@H](Cc2c[nH]c4ccc(F)cc24)C(=O)N3)cc1 [Compound 496] (cyclo(A[dA][Hag][Trp(5-F)][X16]TY(Me)[αMeP][X4]); staple (E) 3-5)
0.1 to 100 | 100 to 1000 | CS[C@H]1C[C@H]2C(=O)N[C@H](C(N)=O)CSCc3cccc(c3)CSCCC(=O)N[C@@H](CCCCN)C(=O)NCC(=O)N[C@@H](Cc3c[nH]c4ccc(F)cc34)C(=O)N[C@@H](Cc3c[nH]c4ccc(F)cc34)C(=O)N[C@@H](CC(=O)O)C(=O)N[C@@H](Cc3cnc[nH]3)C(=O)N[C@@H](Cc3ccc(O)cc3)C(=O)N2C1 [Compound 363] ([Mpa]KG[Trp(5-F)][Trp(5-F)]DHY[X9]C-NH2; linker 1-10 via mXylylene)
0.1 to 100 | 0.11 to 100 | COc1ccc(C[C@@H]2NC(=O)[C@H](Cc3cnc[nH]3)NC(=O)[C@H](CC(=O)O)NC(=O)[C@H](Cc3c[nH]c4ccc(F)cc34)NC(=O)[C@H](Cc3c[nH]c4ccc(F)cc34)NC(=O)[C@@H](C)NC(=O)[C@H](CCCCN)NC(=O)[C@@H](NC(C)=O)CCc3cn(nn3)-c3ccc(cc3)C[C@@H](C(N)=O)NC(=O)[C@]3(C)CCCN3C2=O)cc1 [Compound 371]
100 to 1000 | 1000 to 12100 | C[C@@H]1NC(=O)CCCCc2ccc(cc2)CCCCNC(=O)C[C@@H](C(=O)N[C@@H](Cc2cnc[nH]2)C(=O)N[C@@H](Cc2ccc(O)cc2)C(=O)N2CCC[C@H]2C(N)=O)NC(=O)[C@H](Cc2c[nH]c3ccc(F)cc23)NC(=O)[C@H](Cc2c[nH]c3ccc(F)cc23)NC(=O)CNC1=O [Compound 330] ([X19]AG[Trp(5-F)][Trp(5-F)]DHYP-NH2; lactam N-6)
100 to 1000 | 100 to 1000 | NCCCC[C@@H]1NC(=O)CCSCc2cccc(c2)CSC[C@@H](C(N)=O)NC(=O)[C@@H]2CCCN2C(=O)[C@H](Cc2ccc(O)cc2)NC(=O)[C@H](Cc2c[nH]cn2)NC(=O)[C@H](CC(=O)O)NC(=O)[C@H](CCc2ccccc2)NC(=O)[C@H](Cc2c[nH]c3ccc(F)cc23)NC(=O)CNC1=O [Compound 244] ([Mpa]KG[Trp(5-F)][hPhe]DHYPC-NH2; linker 1-10 via mXylylene)
21000 to 50000 | 21000 to 50000 | COc1ccc(C[C@@H]2NC(=O)[C@H](CCCC(=O)O)NC(=O)[C@@H]3C[C@H](N)CN3C(=O)[C@H](Cc3c[nH]c4ccc(F)cc34)NC(=O)[C@H](Cc3c[nH]c4ccc(F)cc34)NC(=O)[C@@H](C)NC(=O)[C@H](C)NC(=O)CCSCc3ccc(cc3)CSCCNC(=O)[C@]3(C)CCCN3C2=O)cc1 [Compound 345] (cyclo(A[dA][Trp(5-F)][Trp(5-F)][Pro(4S-NH2)][Aad]Y(Me)[αMeP][X17]))

SMILES | IC50 [1] [nM] | IC50 (PCSK9) [nM]
COc1ccc(C[C@@H]2NC(=O)[C@H](Cc3c[nH]cn3)NC(=O)[C@H](CC(=O)O)NC(=O)[C@H](Cc3c[nH]c4ccc(F)cc34)NC(=O)[C@H](Cc3c[nH]c4ccc(F)cc34)NC(=O)[C@@H](C)NC(=O)[C@H](CCCCN)NC(=O)CCSCc3cccc(c3)CSCCNC(=O)[C@]3(C)CCCN3C2=O)cc1C [Compound 387] (cyclo(DH[X11][αMeP][X4]K[dA][Trp(5-F)][Trp(5-F)])) | 0.1 to 100 | 100 to 1000
COc1ccc(C[C@@H]2NC(=O)[C@H](Cc3cnc[nH]3)NC(=O)[C@H](CC(=O)O)NC(=O)[C@H](Cc3c[nH]c4ccc(F)cc34)NC(=O)[C@H](Cc3c[nH]c4ccc(F)cc34)NC(=O)[C@@H](C)NC(=O)[C@H](CCCCN)NC(=O)CCSCc3ccc4ccc(cc4c3)CSCCNC(=O)[C@]3(C)CCCN3C2=O)cc1 [Compound 405] (cyclo(DHY(Me)[αMeP][X10]K[dA][Trp(5-F)][Trp(5-F)])) | 0.1 to 100 | 100 to 1000
C[C@@H]1NC(=O)CCCCC(=O)NCc2ccc(cc2)C[C@@H](C(N)=O)NC(=O)[C@]2(C)CCCN2C(=O)[C@H](Cc2ccc(O)cc2)NC(=O)[C@H](Cc2cnc[nH]2)NC(=O)[C@H](CC(=O)O)NC(=O)[C@H](Cc2c[nH]c3ccc(F)cc23)NC(=O)[C@H](Cc2c[nH]c3ccc(F)cc23)NC(=O)CNC1=O [Compound 370] (AG[Trp(5-F)][Trp(5-F)]DHY[αMeP][Phe(4-CH2NH2)]-NH2; linker N-9 via Adipoyl) | 0.1 to 100 | 100 to 1000
COc1ccc(C[C@@H]2NC(=O)[C@H](Cc3cnc[nH]3)NC(=O)[C@H](CC(=O)O)NC(=O)[C@H](Cc3c[nH]c4ccc(F)cc34)NC(=O)[C@H](Cc3c[nH]c4ccc(F)cc34)NC(=O)[C@@H](C)NC(=O)Cc3ccc(cc3)CNC(=O)c3ccc(cc3)C[C@@H](C(N)=O)NC(=O)[C@]3(C)CCCN3C2=O)cc1 [Compound 391] ([X7][dA][Trp(5-F)][Trp(5-F)]DHY(Me)[αMeP][Phe(4-COOH)]-NH2; lactam N-9) | 0.1 to 100 | 100 to 1000
